Source: PMC6927504, “Screening of House Dust from Chinese Homes for Chemicals with Liver X Receptors Binding Activities and Characterization of Atherosclerotic Activity Using an in Vitro Macrophage Cell Line and ApoE^−/− Mice” (Environmental Health Perspectives, 2019)

Assays:
[1] = Body weight of ApoE−/− mice; format: in vivo, mouse; conditions: 10 and 40 mg/kg BW, 13 weeks
Text: All experiments related to animals were approved by the institutional animal care and use committee of Peking University and followed the guidelines for animal experiments of the university as well as for experimental animals in China. The biological effect size of the animal experiments was based on the previous paper ([Negro Silva et al. 2017]). C57BL/6 (12 weeks old) and ApoE^−/− mice (12 weeks old) were obtained from the Beijing Vital River Laboratory Animal Technology Company. Mice used in the experiments were acclimated to the housing unit 2 weeks before they were used for experiments, and they were randomly assigned to control or TPHP treatment groups. Five animals were housed to a cage, and mice were acclimatized to the controlled environment (temperature: 22±2°C; relative humidity: 40–60%; artificial lighting: 12 h:12 h light/dark). Mice received diet and drinking water ad libitum. Body weight (BW) was measured every week during the dosing period. Forty-five C57BL/6 mice and 27 ApoE^−/− mice were used in this study. […] Considering that this study assessed the effects of short-term exposure to TPHP, whereas humans are exposed to TPHP over a lifelong period, the present study used exposure doses that were higher than that of human exposure from house dust. […]

[2] = system: peroxisome proliferator-activated receptor-γ (PPARγ); parameters: method as in Hu et al. 2017; Pillai et al. 2014; conditions: ref Hu et al. 2017; Pillai et al. 2014; cited from earlier work

O=P(Oc1ccccc1)(Oc1ccccc1)Oc1ccccc1 [TPHP, triphenyl phosphate]
Body weight versus control [1]: No significant differences | PPARγ activity [2]: agonist
